Reference: US10131652B2, “Pyrimidinyloxy benzene derivatives as herbicides” (E. I. DU PONT DE NEMOURS AND COMPANY, priority 2014, dated 2018)

Columns and labels:
Assay type in all cases: in vivo
[1] = tested on: Italian ryegrass (Lolium multiflorum); assay: Test B pre-/postemergence plant response
In short: (§1)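 Greenhouse pots, loam/sand soil; compound formulated with surfactant in non-phytotoxic solvent. Preemergence soil spray and postemergence spray at 1–2 leaf stage run simultaneously. Visual injury, 0–100, about 10 days post-treatment.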

kochia (Kochia scoparia) = assay: Test B pre-/postemergence plant response
In short: as §1

[2] = tested on: ragweed (common ragweed, Ambrosia elatior); assay: Test B pre-/postemergence plant response
In short: as §1

[3] = tested on: barnyardgrass (Echinochloa crus-galli); assay: Test C flooded paddy test plant response; details: Flood, 250 g ai/ha; scale of 0 to 100 where 0 is no effect and 100 is complete control; 13 to 15 days
In short: (§2)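 2-leaf plants; flood 3 cm, cpd into paddy water; greenhouse 13–15 d; visual score vs untreated, 0 = no effect, 100 = complete control; dash = no result.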

[4] = tested on: ducksalad (Heteranthera limosa); assay: Test C flooded paddy test plant response; details: Flood, 250 g ai/ha; scale of 0 to 100 where 0 is no effect and 100 is complete control; 13 to 15 days
In short: as §2

rice (Oryza sativa) = assay: Test C flooded paddy test plant response; details: Flood, 250 g ai/ha; scale of 0 to 100 where 0 is no effect and 100 is complete control; 13 to 15 days
In short: as §2

[5] = tested on: small-flower umbrella sedge (Cyperus difformis); assay: Test C flooded paddy test plant response; details: Flood, 250 g ai/ha; scale of 0 to 100 where 0 is no effect and 100 is complete control; 13 to 15 days
In short: as §2

[6] = tested on: Italian ryegrass (Lolium multiflorum); assay: Test D pre-/postemergence plant response
In short: (§3)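 Greenhouse herbicidal response, both pre- and postemergence applications, with solvent/surfactant formulation. Postemergence plants were at 1- to 4-leaf stage. Visual scores 0–100 relative to controls, taken 13 to 15 days later.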

corn (Zea mays) = assay: Test D pre-/postemergence plant response
In short: as §3

[7] = tested on: galium (catchweed bedstraw, Galium aparine); assay: Test D pre-/postemergence plant response
In short: as §3

[8] = tested on: lambsquarters (Chenopodium album); assay: Test D pre-/postemergence plant response
In short: as §3

[9] = tested on: oilseed rape (Brassica napus); assay: Test D pre-/postemergence plant response
In short: as §3

[10] = tested on: velvetleaf (Abutilon theophrasti); assay: Test D pre-/postemergence plant response
In short: as §3

[11] = tested on: winter wheat (Triticum aestivum); assay: Test D pre-/postemergence plant response
In short: as §3

[12] = 31 g ai/ha, Preemergence, 0 to 100 scale where 0 is no effect and 100 is complete control
[13] = 125 g ai/ha, postemergence, 0 to 100 scale, 0 no effect, 100 complete control
[14] = Postemergence, 31 g ai/ha, 0 to 100 scale (0 no effect, 100 complete control)
[15] = Preemergence, 125 g ai/ha, 0 to 100 scale (0 no effect, 100 complete control)
[16] = Postemergence, 31 g ai/ha, scale 0 to 100 (0 no effect, 100 complete control)
[17] = Postemergence, 62 g ai/ha, scale 0 to 100, 0 no effect, 100 complete control
[18] = Postemergence, 125 g ai/ha, scale 0 to 100, 0 no effect, 100 complete control
[19] = Preemergence, 16 g ai/ha, scale 0 to 100 (0 no effect, 100 complete control)
[20] = Preemergence, 31 g ai/ha, scale 0 to 100 (0 no effect, 100 complete control)
[21] = Preemergence, 62 g ai/ha, scale 0 to 100 (0 no effect, 100 complete control)

Cc1cc(-c2c(F)cccc2Oc2ncc(Cl)cn2)on1 [Compound 229] was tested, and the “Plant response rating, Ryegrass, Italian” value [1, 12] was 0, the “Plant response rating, Ryegrass, Italian” value [1, 13] was 20 and the “Plant response rating, Ryegrass, Italian” value [1, 14] was 0. The “Ryegrass, Italian plant response rating” value [1, 15] was 30, the “Plant response rating, Kochia” value (kochia (Kochia scoparia); [12]) was 80 and the “Plant response rating, Kochia” value (kochia (Kochia scoparia); [13]) was 100. For the same molecule, the “Plant response rating, Kochia” value (kochia (Kochia scoparia); [14]) was 90, the “Kochia plant response rating” value (kochia (Kochia scoparia); [15]) was 100 and the “Plant response rating, Ragweed” value [2, 12] was 70. For the same molecule, the “Plant response rating, Ragweed” value [2, 13] was 100, the “Plant response rating, Ragweed” value [2, 14] was 100 and the “Ragweed plant response rating” value [2, 15] was 90. For the same molecule, the “Barnyardgrass plant response rating” value [3] was 55, the “Ducksalad plant response rating” value [4] was 90 and the “Rice plant response rating” value (rice (Oryza sativa)) was 15. For the same molecule, the “Sedge, Umbrella plant response rating” value [5] was 90, the “Plant response rating (scale 0 to 100), Ryegrass, Italian” value ([6]; Postemergence, 16 g ai/ha) was 0 and the “Ryegrass, Italian plant response rating” value [6, 16] was 0. The “Ryegrass, Italian plant response rating” value [6, 17] was 0, the “Plant response rating, Ryegrass, Italian” value [6, 18] was 5 and the “Plant response rating (scale 0 to 100), Ryegrass, Italian” value ([6]; Preemergence, 125 g ai/ha) was 60. For the same molecule, the “Plant response rating, Ryegrass, Italian” value [6, 19] was 0, the “Plant response rating, Ryegrass, Italian” value [6, 20] was 20 and the “Plant response rating, Ryegrass, Italian” value [6, 21] was 20. For the same molecule, the “Plant response rating (scale 0 to 100), Corn” value (corn (Zea mays); Postemergence, 16 g ai/ha) was 5, the “Corn plant response rating” value (corn (Zea mays); [16]) was 20 and the “Plant response rating, Corn” value (corn (Zea mays); [17]) was 5. The “Plant response rating, Corn” value (corn (Zea mays); [18]) was 5, the “Plant response rating (scale 0 to 100), Corn” value (corn (Zea mays); Preemergence, 125 g ai/ha) was 40 and the “Plant response rating, Corn” value (corn (Zea mays); [19]) was 0. For the same molecule, the “Plant response rating, Corn” value (corn (Zea mays); [20]) was 5, the “Plant response rating, Corn” value (corn (Zea mays); [21]) was 5 and the “Plant response rating (scale 0 to 100), Galium” value ([7]; Postemergence, 16 g ai/ha) was 70. The “Galium plant response rating” value [7, 16] was 70, the “Plant response rating, Galium” value [7, 17] was 65 and the “Plant response rating, Galium” value [7, 18] was 80. For the same molecule, the “Plant response rating (scale 0 to 100), Galium” value ([7]; Preemergence, 125 g ai/ha) was 98, the “Plant response rating, Galium” value [7, 19] was 40 and the “Plant response rating, Galium” value [7, 20] was 80. For the same molecule, the “Plant response rating, Galium” value [7, 21] was 98, the “Plant response rating (scale 0 to 100), Lambsquarters” value ([8]; Postemergence, 16 g ai/ha) was 60 and the “Lambsquarters plant response rating” value [8, 16] was 70. The “Lambsquarters plant response rating” value [8, 17] was 70, the “Plant response rating, Lambsquarters” value [8, 18] was 85 and the “Plant response rating (scale 0 to 100), Lambsquarters” value ([8]; Preemergence, 125 g ai/ha) was 95. For the same molecule, the “Plant response rating, Lambsquarters” value [8, 19] was 35, the “Plant response rating, Lambsquarters” value [8, 20] was 80 and the “Plant response rating, Lambsquarters” value [8, 21] was 80. The “Plant response rating (scale 0 to 100), Oilseed Rape” value ([9]; Postemergence, 16 g ai/ha) was 45, the “Oilseed Rape plant response rating” value [9, 16] was 70 and the “Oilseed Rape plant response rating” value [9, 17] was 60. For the same molecule, the “Plant response rating, Oilseed Rape” value [9, 18] was 80, the “Plant response rating (scale 0 to 100), Oilseed Rape” value ([9]; Preemergence, 125 g ai/ha) was 100 and the “Plant response rating, Oilseed Rape” value [9, 19] was 90. For the same molecule, the “Plant response rating, Oilseed Rape” value [9, 20] was 100, the “Plant response rating, Oilseed Rape” value [9, 21] was 100 and the “Plant response rating (scale 0 to 100), Velvetleaf” value ([10]; Postemergence, 16 g ai/ha) was 15. The “Velvetleaf plant response rating” value [10, 16] was 60, the “Velvetleaf plant response rating” value [10, 17] was 45 and the “Plant response rating, Velvetleaf” value [10, 18] was 70. For the same molecule, the “Plant response rating (scale 0 to 100), Velvetleaf” value ([10]; Preemergence, 125 g ai/ha) was 100, the “Plant response rating, Velvetleaf” value [10, 19] was 70 and the “Plant response rating, Velvetleaf” value [10, 20] was 90. For the same molecule, the “Plant response rating, Velvetleaf” value [10, 21] was 100, the “Plant response rating (scale 0 to 100), Wheat” value ([11]; Postemergence, 16 g ai/ha) was 0 and the “Wheat plant response rating” value [11, 16] was 10. For the same molecule, the “Wheat plant response rating” value [11, 17] was 5, the “Plant response rating, Wheat” value [11, 18] was 10 and the “Plant response rating (scale 0 to 100), Wheat” value ([11]; Preemergence, 125 g ai/ha) was 15. The “Plant response rating, Wheat” value [11, 19] was 0, the “Plant response rating, Wheat” value [11, 20] was 0 and the “Plant response rating, Wheat” value [11, 21] was 0.

With Cc1cc(-c2c(F)cccc2Oc2ncc(Br)cn2)on1 [Compound 230] the “Plant response rating, Ryegrass, Italian” value [1, 12] was 0, the “Plant response rating, Ryegrass, Italian” value [1, 13] was 0 and the “Plant response rating, Ryegrass, Italian” value [1, 14] was 0. For the same molecule, the “Ryegrass, Italian plant response rating” value [1, 15] was 0, the “Plant response rating, Kochia” value (kochia (Kochia scoparia); [12]) was 60 and the “Plant response rating, Kochia” value (kochia (Kochia scoparia); [13]) was 100. The “Plant response rating, Kochia” value (kochia (Kochia scoparia); [14]) was 80, the “Kochia plant response rating” value (kochia (Kochia scoparia); [15]) was 100 and the “Plant response rating, Ragweed” value [2, 12] was 20. The “Plant response rating, Ragweed” value [2, 13] was 100, the “Plant response rating, Ragweed” value [2, 14] was 70 and the “Ragweed plant response rating” value [2, 15] was 80. For the same molecule, the “Barnyardgrass plant response rating” value [3] was 40, the “Ducksalad plant response rating” value [4] was 85 and the “Rice plant response rating” value (rice (Oryza sativa)) was 20. For the same molecule, the “Sedge, Umbrella plant response rating” value [5] was 85, the “Plant response rating (scale 0 to 100), Ryegrass, Italian” value ([6]; Postemergence, 16 g ai/ha) was 0 and the “Ryegrass, Italian plant response rating” value [6, 16] was 0. For the same molecule, the “Ryegrass, Italian plant response rating” value [6, 17] was 5, the “Plant response rating, Ryegrass, Italian” value [6, 18] was 5 and the “Plant response rating (scale 0 to 100), Corn” value (corn (Zea mays); Postemergence, 16 g ai/ha) was 0. For the same molecule, the “Corn plant response rating” value (corn (Zea mays); [16]) was 0, the “Corn plant response rating” value (corn (Zea mays); [17]) was 0 and the “Plant response rating, Corn” value (corn (Zea mays); [18]) was 15. For the same molecule, the “Plant response rating (scale 0 to 100), Galium” value ([7]; Postemergence, 16 g ai/ha) was 80, the “Galium plant response rating” value [7, 16] was 85 and the “Galium plant response rating” value [7, 17] was 85. The “Plant response rating, Galium” value [7, 18] was 95, the “Plant response rating (scale 0 to 100), Lambsquarters” value ([8]; Postemergence, 16 g ai/ha) was 55 and the “Lambsquarters plant response rating” value [8, 16] was 70. For the same molecule, the “Lambsquarters plant response rating” value [8, 17] was 80, the “Plant response rating, Lambsquarters” value [8, 18] was 70 and the “Plant response rating (scale 0 to 100), Oilseed Rape” value ([9]; Postemergence, 16 g ai/ha) was 50. For the same molecule, the “Oilseed Rape plant response rating” value [9, 16] was 60, the “Oilseed Rape plant response rating” value [9, 17] was 75 and the “Plant response rating, Oilseed Rape” value [9, 18] was 75. The “Plant response rating (scale 0 to 100), Velvetleaf” value ([10]; Postemergence, 16 g ai/ha) was 25, the “Velvetleaf plant response rating” value [10, 16] was 40 and the “Velvetleaf plant response rating” value [10, 17] was 55. The “Plant response rating, Velvetleaf” value [10, 18] was 65, the “Plant response rating (scale 0 to 100), Wheat” value ([11]; Postemergence, 16 g ai/ha) was 5 and the “Wheat plant response rating” value [11, 16] was 5. The “Wheat plant response rating” value [11, 17] was 5 and the “Plant response rating, Wheat” value [11, 18] was 15.
